Data on 26 compounds can be found in US8859541B2, “6-alkynylpyridines” (Boehringer Ingelheim International GmbH, priority 2012, dated 2014).

Each structure is given as a SMILES string.

The target of this test is T1, XIAP BIR3 (Homo sapiens, UniProt P98170).
T1 construct: covering amino acids 241 to 356; XIAP BIR3; made in house; host or cells: E. coli
T1 sequence (P98170 241-356): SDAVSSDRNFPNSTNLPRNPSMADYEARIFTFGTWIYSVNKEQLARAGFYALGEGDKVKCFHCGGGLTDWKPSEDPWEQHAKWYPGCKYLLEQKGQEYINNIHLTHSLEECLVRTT
The experiment in a line: XIAP BIR3 binding assay (DELFIA), displacement of SMAC peptide. The note with it: GST-fusion BIR3 domain (aa 241 to 356) 10 nM, SMAC peptide 10 nM; activity of the (S)-isomers. Here is the method:
Biological Methods XIAP BIR3 and cIAP1 BIR3 Binding Assays (DELFIA)
Peptide […]-Lys(Biotin), representing the N-terminus of mature human SMAC (SMAC peptide), was used as interaction partner in the protein-peptide interaction assay.
BIR3 domains (10 nM) were incubated with SMAC peptide (10 nM) in Assay Buffer (50 mM Tris, 120 mM NaCl, 0.1% BSA, 1 mM DTT, 0.05% TritonX100) for one hour at room temperature in the presence of inhibitiory compounds. The assay mixture was transferred to a strepatvidin coated plate and incubated for one hour at room temperature to allow binding of the biotinylated peptide and associated BIR3 domains to the plate. After several washing steps Eu labeled anti-GST antibody (e.g. Perkin Elmer DELFIA Eu-N1-antiGST AD0250) was added to detect BIR3 domain-SMAC peptide interactions according to Perkin Elmer's instructions. […] Time resolved Europium fluoresecence was measured in a Wallac Victor using Standard assay settings.
DELFIA assay results were plotted against compound concentrations and Software GraphPad Prizm was used to calculate half maximal inhibitory concentrations (IC50 values).
For `CCc1ccccc1-c1ccc(NC(=O)C(C)NC)nc1C#Cc1ccccc1` (centres unmarked) [Example 124, N-[5-(2-ethylphenyl)-6-(2-phenyl-ethynyl)pyridin-2-yl]-2-(methyl-amino)propanamide], the IC50 turned out to be 2840 nM. As to `CNC(C)C(=O)Nc1ccc(-c2cncc(N)c2)c(C#Cc2ccccc2)n1` (centres unmarked) [Example 128, N-[5-(5-aminopyridin-3-yl)-6-(2-phenylethynyl)pyridin-2-yl]-2-(methylamino)propanamide], the IC50 worked out at 101 nM.

`CNC(C)C(=O)Nc1ccc(-c2cc(C(=O)OC)ccc2OC)c(C#Cc2ccccc2)n1` (centres unmarked) [Example 131, methyl 4-methoxy-3-[6-[[2-(methylamino)propanoyl]amino]-2-(2-phenylethynyl)pyridin-3-yl]-benzoate] showed an IC50 of 305 nM.

For the compound `CNC(C)C(=O)Nc1ccc(-c2cc(C(=O)OC)cc([N+](=O)[O-])c2)c(C#Cc2ccccc2)n1` (centres unmarked) [Example 133, methyl 3-[6-[[2-(methylamino)-propanoyl]amino]-2-(2-phenyl-ethynyl)pyridin-3-yl]-5-nitrobenzoate], the IC50 stood at 142 nM.

On to `CNC(C)C(=O)Nc1ccc(-c2ccc(C)c(C(=O)OC)c2)c(C#Cc2ccccc2)n1` (centres unmarked) [Example 134, methyl 2-methyl-5-[6-[[2-(methylamino)propanoyl]amino]-2-(2-phenylethynyl)pyridin-3-yl]-benzoate], for which the IC50 amounted to 581 nM. In the case of `CC(N)C(=O)Nc1ccc(-c2cccc3cccnc23)c(C#Cc2ccccc2)n1` (centres unmarked) [Example 135, 2-amino-N-[6-(2-phenylethynyl)-5-quinolin-8-ylpyridin-2-yl]-propanamide] it was 490 nM; in that of `CNC(C)C(=O)Nc1ccc(-c2sc(-c3ccccc3)nc2C)c(C#Cc2ccccc2)n1` (centres unmarked) [Example 136, 2-(methylamino)-N-[5-(4-methyl-2-phenyl-1,3-thiazol-5-yl)-6-(2-phenylethynyl)pyridin-2-yl]-propanamide], 1040 nM. For `CNC(C)C(=O)Nc1ccc(-c2cccc3[nH]ncc23)c(C#Cc2ccccc2)n1` (centres unmarked) [Example 137, N-[5-(1H-indazol-4-yl)-6-(2-phenylethynyl)pyridin-2-yl]-2-(methylamino)propanamide] the value was 155 nM. `CNC(C)C(=O)Nc1ccc(-c2cccc(F)c2F)c(C#Cc2ccccc2)n1` (centres unmarked) [Example 139, N-[5-(2,3-difluorophenyl)-6-(2-phenylethynyl)pyridin-2-yl]-2-(methylamino)propanamide] registered an IC50 of 1410 nM. As for `CNC(C)C(=O)Nc1ccc(-c2cccc(C(F)(F)F)c2OC)c(C#Cc2ccccc2)n1` (centres unmarked) [Example 140, N-[5-[2-methoxy-3-(trifluoromethyl)phenyl]-6-(2-phenylethynyl)pyridin-2-yl]-2-(methylamino)propanamide], the IC50 was determined as 1990 nM. For `CNC(C)C(=O)Nc1ccc(-c2cccc(C(=O)O)c2OC)c(C#Cc2ccccc2)n1` (centres unmarked) [Example 141] the value was 558 nM; for `CNC(C)C(=O)Nc1ccc(-c2cccc3c2ccn3C)c(C#Cc2ccccc2)n1` (centres unmarked) [Example 142, 2-(methylamino)-N-[5-(1-methylindol-4-yl)-6-(2-phenyl-ethynyl)pyridin-2-yl]propanamide], 503 nM; for `CNC(C)C(=O)Nc1ccc(-c2cccc3ncccc23)c(C#Cc2ccc(C)cc2)n1` (centres unmarked) [Example 143, 2-(methylamino)-N-[6-[2-(4-methylphenyl)ethynyl]-5-quinolin-5-ylpyridin-2-yl]propan-amide], 388 nM.

In the case of `CNC(C)C(=O)Nc1ccc(-c2cccc3cnccc23)c(C#Cc2ccc(C)cc2)n1` (centres unmarked) [Example 144, N-[5-isoquinolin-5-yl-6-[2-(4-methylphenyl)ethynyl]pyridin-2-yl]-2-(methylamino)propanamide], the IC50 was 400 nM. In the case of `CNC(C)C(=O)Nc1ccc(-c2ccc(F)nc2)c(C#Cc2ccccc2)n1` (centres unmarked) [Example 146, N-[5-(6-fluoropyridin-3-yl)-6-(2-phenylethynyl)pyridin-2-yl]-2-(methylamino)propanamide] it was 257 nM; in that of `CNC(C)C(=O)Nc1ccc(-c2cnccc2C#N)c(C#Cc2ccc(C)cc2)n1` (centres unmarked) [Example 148, N-[5-(4-cyanopyridin-3-yl)-6-[2-(4-methylphenyl)ethynyl]pyridin-2-yl]-2-(methylamino)propan-amide], 416 nM; in that of `CNC(C)C(=O)Nc1ccc(-c2cccc(-c3ccccc3)c2)c(C#Cc2ccccc2)n1` (centres unmarked) [Example 150, 2-(methylamino)-N-[6-(2-phenyl-ethynyl)-5-(3-phenylphenyl)-pyridin-2-yl]propanamide], 2450 nM. The compound `CNC(C)C(=O)Nc1ccc(-c2ccc(C(=O)OC)nc2)c(C#Cc2cc(F)cc(F)c2)n1` (centres unmarked) [Example 151, methyl 5-[2-[2-(3,5-difluorophenyl)ethynyl]-6-[[2-(methylamino)propanoyl]amino]-pyridin-3-yl]pyridine-2-carboxylate] yielded an IC50 of 326 nM. In the case of `CNC(C)C(=O)Nc1ccc(-c2ccnc3ccccc23)c(C#Cc2cc(F)cc(F)c2)n1` (centres unmarked) [Example 152, N-[6-[2-(3,5-difluorophenyl)-ethynyl]-5-quinolin-4-ylpyridin-2-yl]-2-(methylamino)propanamide] it was 431 nM. In the case of `CNC(C)C(=O)Nc1ccc(-c2cnccc2OC)c(C#Cc2ccc3cnccc3c2)n1` (centres unmarked) [Example 153, N-[6-(2-isoquinolin-6-ylethynyl)-5-(4-methoxypyridin-3-yl)-pyridin-2-yl]-2-(methylamino)-propanamide] it was 1240 nM; in that of `CNC(C)C(=O)Nc1ccc(-c2cnccc2OC)c(C#Cc2ccc3ccccc3c2)n1` (centres unmarked) [Example 154, N-[5-(4-methoxypyridin-3-yl)-6-(2-naphthalen-2-ylethynyl)-pyridin-2-yl]-2-(methylamino)-propanamide], 569 nM. For `CNC(C)C(=O)Nc1ccc(-c2cnc(N3CCCC3)nc2)c(C#Cc2ccc3ccccc3c2)n1` (centres unmarked) [Example 155, 2-(methylamino)-N-[6-(2-naphthalen-2-ylethynyl)-5-(2-pyrrolidin-1-ylpyrimidin-5-yl)-pyridin-2-yl]propanamide] the value was 284 nM. As for `CNC(C)C(=O)Nc1ccc(-c2c(-c3ccccc3)noc2C)c(C#Cc2ccc3ccccc3c2)n1` (centres unmarked) [Example 156, 2-(methylamino)-N-[5-(5-methyl-3-phenyl-1,2-oxazol-4-yl)-6-(2-naphthalen-2-ylethynyl)pyridin-2-yl]propanamide], the IC50 was 3180 nM. In the case of `CNc1ncc(-c2ccc(NC(=O)C(C)NC)nc2C#Cc2ccc3ccccc3c2)cn1` (centres unmarked) [Example 157, 2-(methylamino)-N-[5-[2-(methylamino)pyrimidin-5-yl]-6-(2-naphthalen-2-ylethynyl)-pyridin-2-yl]propanamide] it was 276 nM; in that of `CNC(C)C(=O)Nc1ccc(-c2cnc(SC)nc2)c(C#Cc2ccc3ccccc3c2)n1` (centres unmarked) [Example 158, 2-(methylamino)-N-[5-(2-methylsulfanylpyrimidin-5-yl)-6-(2-naphthalen-2-ylethynyl)-pyridin-2-yl]propanamide], 772 nM. As to `CNC(C)C(=O)Nc1ccc(-c2cncnc2C(C)C)c(C#Cc2ccc3ccccc3c2)n1` (centres unmarked) [Example 159, 2-(methylamino)-N-[6-(2-naphthalen-2-ylethynyl)-5-(4-propan-2-ylpyrimidin-5-yl)-pyridin-2-yl]propanamide], the IC50 turned out to be 767 nM.

As a reminder, the IC50 is the concentration that inhibits the measured activity by half. Read a high IC50 as lower potency.
